Laboratory results from ChEMBL document CHEMBL1130877, “The synthesis of new adenosine A3 selective ligands containing bioisosteric isoxazoles” (Bioorg Med Chem Lett, 1998).

Legend:
Adenosine receptor A2a = Adenosine receptor A2a (Rattus norvegicus, UniProt P30543); assay: Binding affinity for adenosine A2a receptor as inhibition of 3[H]-CGS 21680 binding in rat striatum; assay type: tissue-based
Adenosine receptor A3 = target: T1, Adenosine receptor A3 (Homo sapiens, UniProt P0DMS8); assay: Binding affinity for adenosine A3 receptor as inhibition of [125I]AB-MECA binding to human receptor expressed in HEK 293 cells; assay type: cell-based, HEK293
T1 sequence (P0DMS8 whole entry): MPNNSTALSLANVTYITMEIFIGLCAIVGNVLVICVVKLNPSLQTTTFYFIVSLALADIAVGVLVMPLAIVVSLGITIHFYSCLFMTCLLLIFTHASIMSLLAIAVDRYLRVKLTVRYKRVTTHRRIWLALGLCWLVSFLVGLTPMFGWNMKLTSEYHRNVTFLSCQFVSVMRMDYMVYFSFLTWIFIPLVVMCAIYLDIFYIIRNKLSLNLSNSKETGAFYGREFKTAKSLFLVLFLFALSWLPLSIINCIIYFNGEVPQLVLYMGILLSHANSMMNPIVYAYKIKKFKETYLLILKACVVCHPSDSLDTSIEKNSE

Adenosine receptor A1 = target: T2, Adenosine receptor A1 (Rattus norvegicus, UniProt P25099); assay: Binding affinity for adenosine A1 receptor as inhibition of 3[H]-R-PIA binding in rat brain; assay type: tissue-based
T2 sequence (P25099 whole entry): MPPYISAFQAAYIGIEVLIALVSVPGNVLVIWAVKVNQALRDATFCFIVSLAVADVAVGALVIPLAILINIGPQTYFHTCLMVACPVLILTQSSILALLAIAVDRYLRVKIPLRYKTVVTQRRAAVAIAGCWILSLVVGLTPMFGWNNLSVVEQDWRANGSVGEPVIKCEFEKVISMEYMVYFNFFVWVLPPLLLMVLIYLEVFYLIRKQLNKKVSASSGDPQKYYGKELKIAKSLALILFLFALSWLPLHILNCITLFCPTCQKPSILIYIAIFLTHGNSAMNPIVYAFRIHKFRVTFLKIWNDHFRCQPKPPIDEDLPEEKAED

Chain of Adenosine receptor A2a (P30543 whole entry): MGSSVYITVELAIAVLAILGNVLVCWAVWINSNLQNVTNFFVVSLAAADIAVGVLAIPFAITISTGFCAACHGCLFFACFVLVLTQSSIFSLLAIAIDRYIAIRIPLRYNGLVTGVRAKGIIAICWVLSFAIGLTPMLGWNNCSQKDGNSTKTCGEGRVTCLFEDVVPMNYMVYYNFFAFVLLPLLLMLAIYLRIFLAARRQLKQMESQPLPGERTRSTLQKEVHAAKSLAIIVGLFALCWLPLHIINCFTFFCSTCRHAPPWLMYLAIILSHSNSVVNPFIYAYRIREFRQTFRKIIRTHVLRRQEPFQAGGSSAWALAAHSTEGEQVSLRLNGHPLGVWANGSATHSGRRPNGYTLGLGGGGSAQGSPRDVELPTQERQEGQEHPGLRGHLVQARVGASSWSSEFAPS

| SMILES | Ki (Adenosine receptor A2a) [nM] | Ki (Adenosine receptor A3) [nM] | Ki (Adenosine receptor A1) [nM] |
| --- | --- | --- | --- |
| CONc1nc(Cl)nc2c1ncn2[C@@H]1O[C@H](CCl)[C@@H](O)[C@H]1O | – | 26 | – |
| CONc1nc(Cl)nc2c1ncn2[C@@H]1O[C@H](c2ccon2)[C@@H](O)[C@H]1O | > 10000 | 31 | 620 |
| C=C[C@H]1O[C@@H](n2cnc3c(NOC)nc(Cl)nc32)[C@H](O)[C@@H]1O | > 10000 | 20 | 1230 |

Second part, the molecule after the results:

| Ki (Adenosine receptor A2a) [nM] | Ki (Adenosine receptor A3) [nM] | Ki (Adenosine receptor A1) [nM] | SMILES |
| --- | --- | --- | --- |
| 1900 | 7.8 | 1900 | O[C@@H]1[C@H](O)[C@@H](c2ccon2)O[C@H]1n1cnc2c(NCc3cccc(I)c3)nc(Cl)nc21 |
| 2100 | 41 | 2400 | CNC(=O)[C@H]1O[C@@H](n2cnc3c(NCc4ccccc4)ncnc32)[C@H](O)[C@@H]1O |
